The values below come from patent US8076334B2, “Prodrugs of thyroid hormone analogs” (Hoffmann-La Roche Inc., priority 2007, dated 2011).

Data set [1] relates to Caco-2 cells. Nature of the data set: Permeability from Caco-2 cells (transport assay). It counts as in vitro ADME. The note with it: Caco-2; calculated from pro-drug only, does not include converted drug; in % (unit assumed). On the procedure:
(§1) Caco-2 cells were grown in Minimum Essential Medium (MEM), containing 10% fetal bovine serum, 1% non-essential amino acids, 100 units/ml penicillin and 100 μg/ml streptomycin. They were incubated at 37° C. in a humidified atmosphere of 5% CO2. Culture medium was changed every other day. Caco-2 cells were passed once per week by trypsinization.
(§2) Caco-2 cells were seeded at a density of 4.55×10^5 cells/cm^2. Caco-2 cells were incubated for 7 days at 37° C. Medium was changed every two or three days for Caco-2 cells. Prior to the experiment, cells were equilibrated with transport medium [HBSS (pH 7.4) containing 10 mM HEPES] at 37° C. for 30 min. The transepithelial electrical resistance (TEER) of cell monolayers was measured using “chopstick” electrodes (World Precision Instruments, Sarasota, Fla.). Caco-2 cell monolayers with TEER values>500 were used for the assays.
(§3) Samples were prepared in transport medium containing 1% DMSO. Test compounds were applied to the donor chamber at 10 μM. Plates were incubated at 37 °C while shaking at 90 rpm. Samples were taken at 60 and 120 min from the receiver chamber. TEER values were measured at 5 minutes before the final sampling time point. Samples were mixed with 2 volumes of acetonitrile and centrifuged at 3,500 rpm at 4° C. for 10 min. The supernatant was diluted with 1 volume of water containing 1% acetic acid. Samples were analyzed by LC/MS. Standard serial dilutions were prepared manually at 10, 50, 250, 1,250 and 2,500 nM.
(§4) The apparent permeability (Papp) was calculated with the following equation:
(§5) [formula] where C is the receiver chamber drug concentration, t is time in second, V is the volume of the receiver chamber, Co is the initial drug concentration in the donor chamber and A is the surface area of the filter.

Data set [2] is described as follows: Permeability from Caco-2 cells (transport assay). The data set is classed as in vitro ADME. To be noted: human; Caco-2 monolayers, transport medium pH 7.4, samples at 60 and 120 min. On the procedure:
as §1, §2, §3, §4, §5

Data set [3] in a line: Single dose PO PK in rats. The data set is classed as in vivo. To be noted: rat, 10 mg/kg PO. On the procedure:
A single dose (10 mg/kg) PO (intubation) PK in rats (3 animals) was performed with the compound of Example 5 using a 2% Klucel, 0.1% Tween 80 in water formulation.
Aliquots (0.05 mL) of rat plasma were protein precipitated with acetonitrile. The extracts were diluted with an equal volume of water and injected onto the LC/MS/MS system.
Both the prodrug and parent, compound Ia, were monitored. […] Variability in exposure of the parent after dosing with the prodrug was improved over that obtained after dosing with parent.

Data set [4] in a line: Single dose PO PK in dogs. It counts as in vivo. The note with it: dog, 10 mg/kg PO. As to the method: A single dose (10 mg/kg) PO (intubation) PK in dogs (3 animals) was performed with the compound of Example 5 using a 2% Klucel, 0.1% Tween 80 in water formulation.
Aliquots (0.05 mL) of dog plasma were mixed with 0.050 mL of pH 7.4 phosphate buffered saline and a 0.010 mL aliquot of a stable labeled internal standard working solution. Each of the samples was then extracted with 0.500 mL of ethyl acetate. A 0.350 mL aliquot of each of the sample extract supernatant was transferred to an injection block and evaporated to dryness using the turbovap evaporator. The sample was then reconstituted with 0.200 mL of a 1:1 mixture of water:acetonitrile containing 0.1% acetic acid. A 0.020 mL sample from each well was injected onto the LC/MS/MS system.
The compound of Example 5was dosed orally to dogs at 10 mg/kg. Both the prodrug and parent, compound Ia, were monitored. […] However, the variability in the oral exposure was reduced when dosed with the compound of Example 5 as compared when dosed with parent.

The target of data set [5] is T1, THR-beta/RXR/GRIP (Homo sapiens, UniProt P10828).
T1 construct: made in house; host or cells: E. coli BL21 (DE3) for H6-TRβ; E. coli for EE-RxRα
T1 sequence (P10828 202-461 limits assumed): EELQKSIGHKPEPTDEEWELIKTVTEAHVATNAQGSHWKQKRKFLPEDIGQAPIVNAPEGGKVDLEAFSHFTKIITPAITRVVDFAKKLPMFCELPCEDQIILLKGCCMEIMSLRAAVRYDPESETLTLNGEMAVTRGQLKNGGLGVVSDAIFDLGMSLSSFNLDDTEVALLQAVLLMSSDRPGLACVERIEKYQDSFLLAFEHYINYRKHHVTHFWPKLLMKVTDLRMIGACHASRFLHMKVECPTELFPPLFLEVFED
T1 sequence (P19793 225-462 partner limits assumed): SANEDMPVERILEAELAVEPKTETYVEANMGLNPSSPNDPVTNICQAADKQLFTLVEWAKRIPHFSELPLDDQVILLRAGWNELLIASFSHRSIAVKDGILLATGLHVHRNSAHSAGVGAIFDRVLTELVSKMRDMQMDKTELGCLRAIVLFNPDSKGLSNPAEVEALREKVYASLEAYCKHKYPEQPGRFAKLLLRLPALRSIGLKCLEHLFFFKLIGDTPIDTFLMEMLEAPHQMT
T1 sequence (Q15596 679-703 partner limits assumed): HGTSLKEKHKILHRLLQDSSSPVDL
The data set is described as follows: THR-beta/RXR/GRIP coactivator peptide recruitment assay (HTRF). It counts as biochemical. To be noted: H6-TRβ ligand binding domain, EE-RxRα, biotin-GRIP peptide. On the procedure: In this Example, a TR/RXR/GRIP assay was used to test representative compounds of formula (I).
Lysozyme (1.0 mg/ml, Sigma) and Complete Protease Inhibitor Cocktail (Roche Diagnostics Gmbh) were added to slurry and solution sonicated for one min five times at 4° C.
The resulting His6-EE-tagged protein was produced in E. coli cells. Cells were grown using shake flasks with an 18 hour induction in 0.1 mM IPTG at 18° C., harvested and suspended with five volumes of Buffer B (0.025M Tris, 0.3M NaCl, 0.02 M imidazole, 0.01M β-mercaptoethanol, pH 8.0). Lysozyme (0.2 mg/ml, Sigma) and Complete Protease Inhibitor Cocktail (Roche Diagnostics Gmbh) were added and stirred for 30 min. at 4° C. The suspension was sonicated for 30 seconds, five times, at 4° C. The suspension was centrifuged for 20 min. at 12,000 RCF. The supernatant was filtered by 0.45 μm pore size membrane and 0.5% NP-40 was added. […] The protein was concentrated and dialyzed.
The His6 tag was removed from EE-RxRα by thrombin digestion, using 10 units thrombin (Pharmacia, Piscataway, N.J.) per mg protein and incubating for 2 hours at 25° C. […]
Six microliters of T3 (0-14.8 uM) or test compound (0-1.2 mM) in DMSO was then added and the solution incubated at 37° C. for 30 min. […] The HTRF signal was read on the Victor 5 reader (PerkinElmer Life and Analytical Sciences).

Where [6] appears, read: plasma level of parent compound Ia.

On to `CC(=O)OCn1nc(Oc2c(Cl)cc(-n3nc(C#N)c(=O)[nH]c3=O)cc2Cl)cc(C(C)C)c1=O` [Example 2, Acetic acid 3-[2,6-dichloro-4-(6-cyano-3,5-dioxo-4,5-dihydro-3H-[1,2,4]triazin-2-yl)-phenoxy]-5-isopropyl-6-oxo-6H-pyridazin-1-ylmethyl ester], for which the “Mass Balance” value in data set [1] is on record as 71.0. Moreover, in data set [2], the Papp at 120 min, 10 μM was 4.58 ± 0.74 ×10⁻⁶ cm/s.
`CC(C)c1cc(Oc2c(Cl)cc(-n3nc(C#N)c(=O)[nH]c3=O)cc2Cl)nn(COC(=O)CCC(=O)O)c1=O` [Example 13, Succinic acid mono-{3-[2,6-dichloro-4-(6-cyano-3,5-dioxo-4,5-dihydro-3H-[1,2,4]triazin-2-yl)-phenoxy]-5-isopropyl-6-oxo-6H-pyridazin-1-ylmethyl}ester]: the “Mass Balance” value in data set [1] was 84.4. The apparent permeability coefficient (Papp) at 120 min, 10 μM in data set [2] came to 0.23 ± 0.06 ×10⁻⁶ cm/s.
For `CC(C)c1cc(Oc2c(Cl)cc(-n3nc(C#N)c(=O)[nH]c3=O)cc2Cl)nn(COC(=O)c2cnccn2)c1=O` [Example 8, Pyrazine-2-carboxylic acid 3-[2,6-dichloro-4-(6-cyano-3,5-dioxo-4,5-dihydro-3H-[1,2,4]triazin-2-yl)-phenoxy]-5-isopropyl-6-oxo-6H-pyridazin-1-ylmethyl ester], in data set [1], the “Mass Balance” value was 92.8. In addition, the Papp at 120 min, 10 μM in data set [2] came to 0.92 ± 0.11 ×10⁻⁶ cm/s.
As to `CC(C)c1cc(Oc2c(Cl)cc(-n3nc(C#N)c(=O)[nH]c3=O)cc2Cl)n[nH]c1=O` [Ia, 2-[3,5-Dichloro-4-(5-isopropyl-6-oxo-1,6-dihydro-pyridazin-3-yloxy)-phenyl]-3,5-dioxo-2,3,4,5-tetrahydro-[1,2,4]triazine-6-carbonitrile, reference compound], in data set [3] (setting [6]), the “AUC Extrap” value is reported as 28,663 ng * Hours/mL and the time to peak (Tmax) turned out to be 5 h. For the same compound, in data set [4] (setting [6]), the AUC is 2,936 ng * Hours/mL and the Tmax is 3 h.
In the case of `CC(C)c1cc(Oc2c(Cl)cc(-n3nc(C#N)c(=O)[nH]c3=O)cc2Cl)nn(COC(=O)CN2CCOCC2)c1=O` [Example 12, Morpholin-4-yl-acetic acid 3-[2,6-dichloro-4-(6-cyano-3,5-dioxo-4,5-dihydro-3H-[1,2,4]triazin-2-yl)-phenoxy]-5-isopropyl-6-oxo-6H-pyridazin-1-ylmethyl ester], the “Mass Balance” value in data set [1] is reported as 95.0. For the same compound, the Papp at 120 min, 10 μM in data set [2] was 1.75 ± 0.65 ×10⁻⁶ cm/s.
Take `CC(C)C(=O)OCn1nc(Oc2c(Cl)cc(-n3nc(C#N)c(=O)[nH]c3=O)cc2Cl)cc(C(C)C)c1=O` [Example 5, Isobutyric acid 3-[2,6-Dichloro-4-(6-cyano-3,5-dioxo-4,5-dihydro-3H-[1,2,4]triazin-2-yl)-phenoxy]-5-isopropyl-6-oxo-6H-pyridazin-1-ylmethyl ester]: in data set [3], the “Absorption of the prodrug compared with the parent” value is on record as “faster than the parent” and the “Variability in exposure of the parent after dosing with the prodrug versus dosing with parent” value is given as “improved”. Further, the “Species detected in plasma after oral dosing of the prodrug” value in data set [3] (prodrug and parent monitored) was “only the parent was detected”. This compound also showed an EC50 in data set [5] of over 57.6 µM. In data set [4], the “Bioavailability of parent after dosing with the prodrug versus dosing with parent” value is “comparable” and the “Variability in the oral exposure versus dosing with parent” value is reported as “reduced”. Besides, in data set [4] (prodrug and parent monitored), the “Species detected in plasma after oral dosing of the prodrug” value is “only the parent was detected”. Also, in data set [1], the “Mass Balance” value is on record as 47.9. In data set [2], this compound returned an apparent permeability coefficient (Papp) at 120 min, 10 μM of 8.87 ± 0.63 ×10⁻⁶ cm/s.
For the compound `CC(C)c1cc(Oc2c(Cl)cc(-n3nc(C#N)c(=O)[nH]c3=O)cc2Cl)nn(COC(=O)N2CCOCC2)c1=O` [Example 6, Morpholine-4-carboxylic acid 3-[2,6-dichloro-4-(6-cyano-3,5-dioxo-4,5-dihydro-3H-[1,2,4]triazin-2-yl)-phenoxy]-5-isopropyl-6-oxo-6H-pyridazin-1-ylmethyl ester], the “Mass Balance” value in data set [1] is 101.5. Further, the Papp at 120 min, 10 μM in data set [2] turned out to be 1.24 ± 0.24 ×10⁻⁶ cm/s.
